Experimental data: US20210130308A1, “MODULATORS OF EUKARYOTIC INITIATION FACTOR 2” (Denali Therapeutics Inc., priority 2018, published 2021)

These molecules were tested on ATF4 translation (ISR pathway activation) (assay: ATF4 Nano Luciferase reporter integrated stress response (ISR) assay in H4 ATF4-NLuc (clone 17) cells). Conditions: H4 ATF4-NLuc (clone 17) cells; compounds 30 minutes at 37 degree Celsius, then 50 um sodium arsenite for 6 additional hours; luminescence readout; read-out: IC50.
Format: cell-based, human
Excerpt: Cellular stress leads to activation of the integrated stress response pathway through one of four eukaryotic initiation factor 2α kinases and halts global translation, while allowing for the translation of select transcripts like ATF4 (activating transcription factor 4) that are important for the response to cellular stress. During normal conditions, small open reading frames (ORFs) in the 5′ UTR of ATF4 occupy the ribosome and prevent translation of the coding sequence of ATF4. During stress conditions however, the ribosome scans past these upstream ORFs and preferentially begins translation at the coding sequence of ATF4. In this way, the translation, and thus protein level of ATF4 is a readout of ISR pathway activation. Thus, a fusion of the uORFs and the beginning of the coding sequence of ATF to a common cellular reporter like nano-luciferase allows for a sensitive and high-throughput readout of ISR pathway activity.
Compounds as provided herein were tested in the following assay. The ATF4 Nano Luciferase reporter was constructed by fusing the human full length 5′ untranslated region (5′-UTR) and a small portion of the coding sequence of the ATF4 gene upstream of the Nano Luciferase (NLuc) coding sequence lacking it's start codon. Specifically, nucleotides +1 through +364 (relative to the transcriptional start site) of ATF4 transcript variant 2 (NCBI NM_182810.2) flanked 5′ by EcoRI and 3′ by BamHI restriction enzyme sites were synthesized and cloned into the EcoRI/BamHI cloning sites of pLVX-EF1a-IRES-Puro lentivirus vector (Clontech). […]. H4 cells were selected with […] Puromycin, and clonal cell lines generated by limiting dilution. We utilized this cell line to generate an integrated stress response (ISR) assay to evaluate the activity of ISR pathway inhibitors via luminescence readout. The H4 ATF4-NLuc (clone 17) cell line is plated at a density of […] in 96-well or 384-well respectively in DMEM+10% fetal bovine serum. 24-hours later test compounds diluted in dimethyl sulfoxide (DMSO) are added for 30 minutes at 37 degree Celsius, followed by ISR pathway activation with 50 um sodium arsenite aqueous solution for 6 additional hours. Nano Glo luciferase reagent (N1150, Promega) is added according to manufacturer instructions and the luminescence signal (corresponding to the level of ATF4 translation and thus ISR pathway activation) is read with a standard plate reader with luminescence detection capabilities.
In the table below, activity of the tested compounds is provided in Table 3 as follows: +++=IC50<1 μM; ++=IC50 1-10 μM; +=IC50>10 μM.
`N#CC1CC(OCC(=O)NC23CC(NC(=O)COc4ccc(Cl)cc4)(C2)C3)C1` (stereo not drawn) [Example 31, 2-(4-chlorophenoxy)-N-[3-[[2-(3-cis-cyanocyclobutoxy)acetyl]amino]-1-bicyclo[1.1.1]pentanyl]acetamide] was tested, and the IC50 was less than 1000 nM. Molecule `O=C(COc1ccc(Cl)cc1)NC12CC(NC(=O)COC3CC(C(F)(F)F)C3)(C1)C2` (single isomer, unassigned) [3 (second eluting isomer), 2-(4-chlorophenoxy)-N-(3-(2-(3-(trifluoromethyl)cyclobutoxy)acetamido)bicyclo[1.1.1]pentan-1-yl)acetamide] has an IC50 of less than 1000 nM. `O=C(COc1ccc(Cl)c(F)c1)NC12CC(NC(=O)COC3CC(C(F)(F)F)C3)(C1)C2` (single isomer, unassigned) [12 (second eluting isomer), 2-(4-chloro-3-fluorophenoxy)-N-(3-(2-(3-(trifluoromethyl)cyclobutoxy)acetamido)bicyclo[1.1.1]pentan-1-yl)acetamide] was tested, and the IC50 was less than 1000 nM.

Same assay, conditions: Homo sapiens, 0.5 h
`O=C(COc1ccc(Cl)cc1)NC12CC(NC(=O)COC3CCC3)(C1)C2` [Example 1, 2-(4-chlorophenoxy)-N-(3-(2-cyclobutoxyacetamido)bicyclo[1.1.1]pentan-1-yl)acetamide] showed an IC50 of less than 1000 nM.

Same assay, conditions: Homo sapiens, 0.5 h; H4 ATF4-NLuc (clone 17) cells; compounds 30 minutes at 37 degree Celsius, then 50 um sodium arsenite for 6 additional hours; luminescence readout; read-out: IC50
`O=C(COC1CC(OC(F)(F)F)C1)NC12CC(NC(=O)[C@H]3CCc4cc(C(F)(F)F)ccc4O3)(C1)C2` (single isomer, unassigned) [Example 72 (first eluting isomer), N-(3-(2-(3-cis-(trifluoromethoxy)cyclobutoxy)acetamido)bicyclo[1.1.1]pentan-1-yl)-6-(trifluoromethyl)chroman-2-carboxamide] showed an IC50 of less than 1000 nM. `O=C(COC1CC(C(F)(F)F)C1)NC12CC(NC(=O)c3ccc4cc(C(F)(F)F)ccc4n3)(C1)C2` (centres unmarked) [Example 67, 6-(trifluoromethyl)-N-(3-(2-(3-(trifluoromethyl)cyclobutoxy)acetamido)bicyclo[1.1.1]pentan-1-yl)quinoline-2-carboxamide] was tested, and the IC50 was less than 1000 nM. With `CO[C@H]1CN(CCOC2CC(OC(F)(F)F)C2)CCC1NC(=O)COc1ccc(Cl)c(F)c1` (stereo partly drawn) [Example 48, 2-(4-chloro-3-fluoro-phenoxy)-N-[cis-3-methoxy-1-[2-[3-cis-(trifluoromethoxy)cyclobutoxy]ethyl]-4-piperidyl]acetamide] the IC50 was less than 1000 nM. In the case of `O=C(COc1ccc(Cl)c(F)c1)NC12CC(NC(=O)COC3CC(OC(F)F)C3)(C1)C2` (stereo not drawn) [Example 34, 2-(4-chloro-3-fluoro-phenoxy)-N-[3-[[2-[3-cis-(difluoromethoxy)cyclobutoxy]acetyl]amino]-1-bicyclo[1.1.1]pentanyl]acetamide], the IC50 is reported as less than 1000 nM. Molecule `O=C(COC1CC(OC(F)(F)F)C1)NC12CC(NC(=O)[C@@H]3CCc4cc(C(F)(F)F)ccc4O3)(C1)C2` (single isomer, unassigned) [Example 72 (second eluting isomer), N-(3-(2-(3-cis-(trifluoromethoxy)cyclobutoxy)acetamido)bicyclo[1.1.1]pentan-1-yl)-6-(trifluoromethyl)chroman-2-carboxamide] has an IC50 of less than 1000 nM. For `O=C(COc1ccc(Cl)c(F)c1)NC1CCN(CCO[C@H]2C[C@@H](OC(F)(F)F)C2)CC1` [Example 27, 2-(4-chloro-3-fluoro-phenoxy)-N-[1-[2-[3-cis-(trifluoromethoxy)cyclobutoxy]ethyl]-4-piperidyl]acetamide], the IC50 was less than 1000 nM. For `O=C(COC1CC(OC(F)(F)F)C1)NC12CC(NC(=O)c3ccc4cc(Cl)ccc4n3)(C1)C2` (stereo not drawn) [Example 64, 6-chloro-N-[1-[[2-[3-cis-(trifluoromethoxy)cyclobutoxy]acetyl]amino]-3-bicyclo[1.1.1]pentanyl]quinoline-2-carboxamide], the IC50 was less than 1000 nM. For `O=C(COc1ccc(Cl)c(F)c1)N[C@H]1CC[C@H](c2nnc(C3CC(OC(F)(F)F)C3)o2)CC1` (stereo partly drawn) [Example 28, 2-(4-chloro-3-fluoro-phenoxy)-N-[4-[5-[3-cis-(trifluoromethoxy)cyclobutyl]-1,3,4-oxadiazol-2-yl]cyclohexyl]acetamide], the IC50 was less than 1000 nM. `O=C(COc1ccc(Cl)c(F)c1)NC1CN(C(=O)COC2CC(OC(F)(F)F)C2)C1` (stereo not drawn) [Example 24, 2-(4-chloro-3-fluoro-phenoxy)-N-[1-[2-[3-cis-(trifluoromethoxy)cyclobutoxy]acetyl]azetidin-3-yl]acetamide] was tested, and the IC50 was 1000 to 10000 nM. `O=C(COc1ccc(Cl)c(F)c1)NC1CCN(c2cnn(C3CC(OC(F)(F)F)C3)c2)CC1` (stereo not drawn) [Example 46, 2-(4-chloro-3-fluorophenoxy)-N-(1-(1-(3-cis-(trifluoromethoxy)cyclobutyl)-1H-pyrazol-4-yl)piperidin-4-yl)acetamide] showed an IC50 of less than 1000 nM. `O=C(COc1ccc(Cl)c(F)c1)NC12CC(NC(=O)COC3CC(F)C3)(C1)C2` (centres unmarked) [Example 9] was tested, and the IC50 was less than 1000 nM. For `O=C(COc1ccc(Cl)c(F)c1)NC1CC2(C1)CN(C(=O)COC1CC(n3nccn3)C1)C2` (centres unmarked) [Example 18, 2-(4-chloro-3-fluoro-phenoxy)-N-[2-[2-[3-(triazol-2-yl)cyclobutoxy]acetyl]-2-azaspiro[3.3]heptan-6-yl]acetamide], the IC50 was less than 1000 nM. `O=C(COC1CC(OC(F)(F)F)C1)NC12CC(NC(=O)c3ccc4c(F)c(F)ccc4n3)(C1)C2` (stereo not drawn) [Example 68, 5,6-difluoro-N-(3-(2-(3-cis-(trifluoromethoxy)cyclobutoxy)acetamido)bicyclo[1.1.1]pentan-1-yl)quinoline-2-carboxamide] was tested, and the IC50 was less than 1000 nM. Work on `CC1(C#N)CC(OCC(=O)NC23CC(NC(=O)COc4ccc(Cl)c(F)c4)(C2)C3)C1` (centres unmarked) [Example 11, 2-(4-chloro-3-fluorophenoxy)-N-(3-(2-(3-cyano-3-methylcyclobutoxy)acetamido)bicyclo[1.1.1]pentan-1-yl)acetamide] yielded an IC50 of less than 1000 nM. `O=C(COc1ccc(Cl)c(F)c1)NC1CCN(C(=O)COC2CC(OC(F)(F)F)C2)CC1` (stereo not drawn) [Example 62, 2-(4-chloro-3-fluoro-phenoxy)-N-[1-[2-[3-cis-(trifluoromethoxy)cyclobutoxy]acetyl]-4-piperidyl]acetamide] was tested, and the IC50 was less than 1000 nM. Molecule `O=C(COc1ccc(Cl)c(F)c1)NC1CN(c2nnc(COC3CC(OC(F)(F)F)C3)o2)C1` (stereo not drawn) [Example 23, 2-(4-chloro-3-fluoro-phenoxy)-N-[1-[5-[[3-cis-(trifluoromethoxy)cyclobutoxy]methyl]-1,3,4-oxadiazol-2-yl]azetidin-3-yl]acetamide] has an IC50 of less than 1000 nM. `O=C(COc1ccc(Cl)c(F)c1)NC1CC2(C1)CC(c1nnc(C3CC(OC(F)(F)F)C3)o1)C2` (stereo not drawn) [Example 33, 2-(4-chloro-3-fluoro-phenoxy)-N46-[5-[3-cis-(trifluoromethoxy)cyclobutyl]-1,3,4-oxadiazol-2-yl]spiro[3.3]heptan-2-yl)acetamide] gave an IC50 of less than 1000 nM. `O=C(COc1ccc(Cl)c(F)c1)NC12CC(NC(=O)COC3CC(C(F)(F)F)C3)(C1)C2` (single isomer, unassigned) [12 (first eluting isomer), 2-(4-chloro-3-fluorophenoxy)-N-(3-(2-(3-(trifluoromethyl)cyclobutoxy)acetamido)bicyclo[1.1.1]pentan-1-yl)acetamide] gave an IC50 of less than 1000 nM. Molecule `CC(C)OC1CC(OCC(=O)NC23CC(NC(=O)c4ccc5cc(C(F)(F)F)ccc5n4)(C2)C3)C1` (stereo not drawn) [Example 70, N-(3-(2-(3-cis-isopropoxycyclobutoxy)acetamido)bicyclo[1.1.1]pentan-1-yl)-6-(trifluoromethyl)quinoline-2-carboxamide] has an IC50 of less than 1000 nM. For `O=C(COc1ccc(Cl)c(F)c1)NC12CC(NC(=O)COC3CC(C(F)F)C3)(C1)C2` (stereo not drawn) [Example 38, 2-(4-chloro-3-fluoro-phenoxy)-N-[3-[[2-[3-cis-(difluoromethyl)cyclobutoxy]acetyl]amino]-1-bicyclo[1.1.1]pentanyl]acetamide], the IC50 was less than 1000 nM. In the case of `O=C(COc1ccc(Cl)cc1)NC12CC(NC(=O)COC3CC(C(F)(F)F)C3)(C1)C2` (single isomer, unassigned) [3 (first eluting isomer), 2-(4-chlorophenoxy)-N-(3-(2-(3-(trifluoromethyl)cyclobutoxy)acetamido)bicyclo[1.1.1]pentan-1-yl)acetamide], the IC50 is reported as less than 1000 nM. For `O=C(NC1CCN(C(=O)COC2CC(OC(F)(F)F)C2)CC1)c1ccc2cc(Cl)ccc2n1` (stereo not drawn) [Example 63, 6-chloro-N-[1-[2-[3-cis-(trifluoromethoxy)cyclobutoxy]acetyl]-4-piperidyl]quinoline-2-carboxamide], the IC50 was less than 1000 nM.
